Measured values from ChEMBL document CHEMBL5360639, “Cannabidiol Analogue CIAC001 for the Treatment of Morphine-Induced Addiction by Targeting PKM2” (J Med Chem, 2023).

Key:
[1] = Toxicity in BALB/c mouse assessed as cognitive impairment by measuring time spent on new arm at 10 mg/kg, ip administered once daily for 3 days and measured after 45 mins by Y maze test; format: organism-based; conditions: in vivo, 72.75 h, time 4365 min
[2] = Cytotoxicity against mouse BV-2 cells assessed as reduction in cell viability by crystal violet staining based assay; format: toxicity
[3] = Therapeutic index, ratio of IC50 for cytotoxicty against mouse BV-2 cells assessed as reduction in cell viability by crystal violet staining based assay to IC50 for nti-neuroinflammatory activity in mouse BV-2 cells assessed as inhibition of LPS-induced NO production; format: toxicity; conditions: read-out: Ratio IC50
BV-2 = assay: Anti-neuroinflammatory activity in mouse BV-2 cells assessed as inhibition of LPS-induced NO production incubated for 24 hrs by microplate reader analysis; format: functional, cell-based; conditions: BV-2, 24 h

Row | Compound | Activity [1] | IC50 [2] [µM] | selectivity ratio [3] | IC50 (BV-2) [µM]
1 | CCCCCc1cc(O)c2c(c1)OC(C)(C)[C@@H]1CCC(C)=C[C@@H]21 [DRONABINOL] | Toxic |  |  | 
2 | C=C(C)[C@@H]1CCC(C)=C[C@H]1c1c(OCCC)cc(CCCCC)cc1OCCC |  | > 200 |  | 
3 | C=C(C)[C@@H]1CCC(C)=C[C@H]1c1c(O)cc(CCCCC)cc1OCC |  | 176 | 1.1 | 
4 | C=CCOc1cc(CCCCC)cc(O)c1[C@@H]1C=C(C)CC[C@H]1C(=C)C |  | 71.5 | 0.7 | 59.8
5 | C=C(C)[C@@H]1CCC(C)=C[C@H]1c1c(O)cc(CCCCCCC)cc1O |  | 14.1 | 0.3 | 42
6 | C#CCOc1cc(CCCCC)cc(O)c1[C@@H]1C=C(C)CC[C@H]1C(=C)C |  | 65 | 1.2 | 99.6
